Key:
HACAT keratinocytes = experiment: Inhibition of TGFa- or EGF-specific proliferation of HACAT keratinocytes (3H-thymidine incorporation); type: cell-based; settings: test 1: HaCaT cells stimulated with recombinant human TGFa or EGF, two days
Method: 1. Inhibition of TGFa- or EGF-specific proliferation of HACAT keratinocytes:
The spontaneously immortalized aneuploid human keratinocyte HaCaT cell line, which has a transformed phenotype in vitro but remains non-tumorigenic, is grown in DMEM H21 medium supplemented with 5 % FCS and 2.5 % glutamine. 5 ml aliquots of a cell suspension adjusted to 2 x 10^5 cells/ml are seeded into 50 ml culture flasks and the cells are cultured for 2 to 3 days in DMEM medium supplemented with 5 % FCS. When 90-100 % confluence is attained cells are trypsinized, washed, suspended in KBM medium supplemented with 0.2 % dialyzed FCS (Gibco) and Ca^++ to a final concentration of 0.06 mM, and 2 x 10^4 cells are seeded into 96 wells cell culture plates. Proliferation is stimulated with recombinant human TGFa or EGF (reconstituted in 0.1 M acetic acid) at various concentrations in the presence of inhibitors. Cells are grown for two days at 37 / 5 % CO2. During the last 16 hours incorporation of ^3H-thymidine (1 µ.Ci/well) is performed. Cells are washed with ice-cold PBSdef. 3 times and trichloroacetic acid twice, solubilized in 100 µl of 0.1 N NaOH containing 1 % SDS, and radioactivity is counted. Inhibition of cell proliferation is expressed as % of the control.

[1] = system: oxazolone-induced allergic contact dermatitis; experiment: Inhibition of oxazolone-induced allergic contact dermatitis in the mouse (pinnal swelling, topical application); type: in vivo; settings: test 3: mouse, two applications, concentration of 0.4 %, relative to vehicle (ethanol/acetone 7:3)
Method: 3. Inhibition of oxazolone-induced allergic contact dermatitis in the mouse
Sensitization is induced by a single application of 2 % 6 oxazolone (10 µl) onto the abdominal skin of mice (8 animals per group). Hypersensitivity reaction causing pinnal swelling is elicited by a second exposure to 2 % oxazolone applied to one pinna of each animal after 8 days.
Inhibition of pinnal swelling is achieved by two topical applications of test compound (30 minutes before and after elicitation of the challenge reaction). Efficacy is determined by the difference of pinnal weights of animals treated with the drug and with the vehicle (ethanol/acetone 7:3), respectively, and expressed in % of swelling with vehicle application alone.

Row | Compound | IC50 (HACAT keratinocytes) | inhibition of swelling [1] | IC50 (HACAT keratinocytes; Homo sapiens, HaCaT)
1 | N#CC(=Cc1ccc(O)c(O)c1)C(N)=S [AG213] | 5 to 50 µM | – | –
2 | COC(=O)c1cc(OCc2cc(OC)ccc2OC)ccc1O [Example 1, 5-(2,5-Dimethoxybenzyloxy)-2-hydroxybenzoic acid methyl ester] | – | 46% | < 1 µM
3 | O=c1c(-c2ccc(O)cc2)coc2cc(O)cc(O)c12 [genistein] | 5 µM | – | 5 to 50 µM
